Results from US5853731A, “Thromboxane A2 Receptor antagonism and antioxidant action of cinnamophilin and its derivatives, their pharmaceutical compositions and uses” (National Science Council, priority 1997, dated 1998).
Read-outs that look alike come from different tables or passages of the source.

How the values were obtained:
[1] = system: TX synthase; assay: Large scale screening test: TX synthase inhibition; type: biochemical
[2] = system: rabbit platelets; assay: Aggregation of washed rabbit platelet suspension induced by AA, PAF, collagen, U-46619, ADP and thrombin; type: cell-based
Protocol: A. Preparation of aggregation inducing agent
1. Collagen (bovine tendon) in 15 mM aqueous acetic acid was homogenized at 4° C. to form a well dispersed suspension in 1 mg/ml and stocked at -70° C. Before using, it was thawed and well homogenized.
2. PAF was dissolved in CCl4 and stocked at […] Before using, it was diluted with deionized water.
3. […] and sodium arachidonate (AA) were dissolved in deionized water for use.
B. Preparation of platelets
A suspension of platelets was prepared according to the reported method. EDTA (100 mM) and the blood obtained from rabbit's ear vein were mixed in the ratio of 1:4, and immediately centrifuged (120× g) at room temperature for 10 minutes. Platelet-rich plasma was subjected to further centrifuge (500× g) for another 10 minutes. After the plasma was removed, the platelets in the lower layer were suspended in the Tyrode solution containing EDTA (2 mM) and bovine serum albumin (3.5 mg/ml), and subjected to centrifuge (500× g) again for 10 minutes. The platelets obtained were suspended in a Tyrode solution containing no EDTA, and was adjusted to about 4.5×10^8 cells/ml by a cell counter. 1 mM of calcium ion (Ca^2+) was added to the suspension. 30 minutes after the addition, the experiment was conducted. The composition of Tyrode […]: NaCl (136.9), KCl (2.7), NaH2 PO4 (0.4), NaHCO3 (11.9), glucose (11.1).
(§1) C. Platelet aggregation and ATP release reaction test
(§2) The method reported by Born (J. Physiol. 168, 178, 1963) was used to determine the platelet aggregation by a Lumi-aggregometer (Model 1020, Payton, Canada). Platelet suspension (0.4 ml) was added into a small glass tube coated with silicone, and stirred at 900 rpm with a small magnetic stirrer. Unless otherwise specified, the antagonist was added 1 minute before the inducing agent, and all the reactions were carried out at 37° C. The aggregation was calculated by following formula: […]
aggregation (% )=(light absorption before adding inducing agent-light absorption after adding inducing agent)/(light absorption before adding inducing agent-light absorption of Tyrode solution)×100% […]
| Platelets were precincubated with 1a, 1b, 1c, 1e, 2 or DMSO (0.5%, | control) at 37° C. for 3 min, then the inducer was added.

[3] = system: human platelet-rich plasma; assay: Aggregation test of human platelet-rich plasma; type: cell-based; details: for IC50: Homo sapiens, Platelet
Protocol: as §1, §2
aggregation (% )=(light absorption before adding inducing agent-light absorption after adding inducing agent)/(light absorption before adding inducing agent-light absorption of Tyrode solution)×100%
(5 μM), Adrenaline (10 μM),

[4] = system: rat thoracic aorta; assay: Rat aortic contraction caused by norepinephrine and high potassium (KCl); type: cell-based, Wistar rat; details: for K+ contraction (%), Tonic: K+ (80 mM); for K+ contraction (%), Tonic / norepinephrine contraction (%), Phrase (phasic) / norepinephrine contraction (%), Tonic: 15 min; for norepinephrine contraction (%), Phrase (phasic) / norepinephrine contraction (%), Tonic: norepinephrine 3 μM
Protocol: A. Rat Aortic Contraction
Wistar rats of either sex weighing 250 g to 300 g were killed by a blow to the head. The thoracic aorta was isolated and excess fat and connective tissue were removed. Vessels were cut into rings of about 5 mm in length and mounted in organ baths containing 5 ml Krebs solution of the following composition (mM): NaCl (118.4), KCl (4.7), CaCl (1.9), MgSO4 (1.2), KH2 PO4 (1.2), NaHCO3 (25.0) and glucose (11.7). The tissue bath solution was maintained at 37° C. and gassed with 95% O2 :5% CO2 mixture. Two stainless steel hooks were inserted into the aortic lumen, one was fixed while the other was connected to a transducer. Aortae were equilibrated in the medium for 90 min with three changes of Krebs solution and maintained under an optimal tension of 1 g before specific experimental protocols were initiated.
Contraction was recorded isometrically via a force-displacement transducer connected to a Grass polygraph. Aortae were allowed to preincubate for 15 minutes with cinnamophilin before generating the cumulative concentration-response curve with each agonist for 15-30 min at 3 min intervals. Results are expressed as a percentage of the maximal control response for each agonist.
Rat aorta ring were preincubated with lignans or DMSO (0.1% control) at
37° C. for 15 min, then the inducer was added.

[5] = system: TXA2 receptor; assay: Large scale screening test: TXA2 receptor antagonism; type: biochemical

IC50 ([3]; human platelet-rich plasma, inducer A-23187 5 μM, read-out: IC50, platelet aggregation): > 30 µM
IC50 ([3]; human platelet-rich plasma, inducer ADP 5 μM, First Phrase, read-out: IC50, platelet aggregation, first phase): > 30 µM
IC50 ([3]; human platelet-rich plasma, inducer ADP 5 μM, Second Phrase, read-out: IC50, platelet aggregation, second phase): 6 ± 0.6 µM
IC50 ([3]; human platelet-rich plasma, inducer U-46619 1 μM, read-out: IC50, platelet aggregation): 3 ± 0.4 µM
IC50 ([3]; human platelet-rich plasma, inducer adrenaline 10 μM, First Phrase, read-out: IC50, platelet aggregation, first phase): > 30 µM
IC50 ([3]; human platelet-rich plasma, inducer adrenaline 10 μM, Second Phrase, read-out: IC50, platelet aggregation, second phase): 7.6 ± 0.9 µM
IC50 ([3]; human platelet-rich plasma, inducer arachidonic acid (AA) 800 μM, read-out: IC50, platelet aggregation): 5 ± 0.4 µM
IC50 ([3]; human platelet-rich plasma, inducer collagen, read-out: IC50, platelet aggregation): 5.6 ± 0.6 µM
TXA2 receptor antagonizing property [5]: TXA2 receptor antagonizing properties
Compound: COc1cc(CC(C)C(C)C(=O)c2ccc(O)c(OC)c2)ccc1O (stereo not shown) [Compound 1, cinnamophilin]
TX synthase inhibitory property [1]: TX synthase inhibitory
Aggregation (%) ([2]; inducer AA (100 μM), conc 5 μM, control 92.1 ± 1.3): 83.8 ± 4.6%
Aggregation (%) ([2]; inducer AA (100 μM), conc 10 μM, control 92.1 ± 1.3): 79.0 ± 6.3%
Aggregation (%) ([2]; inducer AA (100 μM), conc 20 μM, control 92.1 ± 1.3): 42.4 ± 3.0%
Aggregation (%) ([2]; inducer AA (100 μM), conc 50 μM, control 92.1 ± 1.3): 3.8 ± 3.5%
Aggregation (%) ([2]; inducer ADP (20 μM), conc 300 μM, control 81.6 ± 3.0): 75.6 ± 9.2%
Aggregation (%) ([2]; inducer PAF (2 ng/ml), conc 300 μM, control 91.7 ± 2.0): 83.5 ± 8.0%
Aggregation (%) ([2]; inducer U-46619 (1 μM), conc 200 μM, control 89.4 ± 1.2): 22.1 ± 2.4%
Aggregation (%) ([2]; inducer collagen (10 μg/ml), conc 50 μM, control 93.6 ± 1.0): 87.0 ± 1.6%
Aggregation (%) ([2]; inducer collagen (10 μg/ml), conc 100 μM, control 93.6 ± 1.0): 44.7 ± 10.0%
Aggregation (%) ([2]; inducer collagen (10 μg/ml), conc 200 μM, control 93.6 ± 1.0): 0.0 ± 0.0%
Aggregation (%) ([2]; inducer thrombin (0.1 U/ml), conc 300 μM, control 94.8 ± 2.0): 94.6 ± 1.4%
inhibition of U-46619 induced platelet aggregation ([3]; U-46619): potential inhibition
inhibition of second phase aggregation ([3]; human platelet-rich plasma, ADP and adrenaline): inhibit second phase aggregation
inhibition of platelet aggregation ([3]; induced by AA, ADP, collagen, U-46619, A-23187): potentially to inhibit the platelet aggregation
K+ contraction (%), Tonic ([4]; conc 1 μM): 60.2 ± 1.5%
K+ contraction (%), Tonic ([4]; conc 3 μM): 36.6 ± 4.7%
K+ contraction (%), Tonic ([4]; conc 10 μM): 5.2 ± 2.3%
K+ contraction (%), Tonic ([4]; conc 50 μM): 4.5 ± 3.2%
phasic contractions ([4]; noradrenaline and high potassium (80 mM)): inhibited the phasic contractions
norepinephrine contraction (%), Phrase (phasic) ([4]; conc 3 μM): 121.8 ± 7.2%
norepinephrine contraction (%), Phrase (phasic) ([4]; conc 5 μM): 100.4 ± 9.7%
norepinephrine contraction (%), Phrase (phasic) ([4]; conc 10 μM): 69.3 ± 4.0%
norepinephrine contraction (%), Phrase (phasic) ([4]; conc 50 μM): 65.9 ± 11.3%
norepinephrine contraction (%), Tonic ([4]; conc 3 μM): 90.1 ± 5.5%
norepinephrine contraction (%), Tonic ([4]; conc 5 μM): 77.1 ± 5.7%
norepinephrine contraction (%), Tonic ([4]; conc 10 μM): 27.9 ± 0.5%
norepinephrine contraction (%), Tonic ([4]; conc 50 μM): 14.6 ± 1.5%
